# Biological target: T1, ER (Homo sapiens, UniProt P03372)
# T1 construct: host or cells: T47D and MCF7 human breast cancer cells
# T1 sequence (P03372 1-595): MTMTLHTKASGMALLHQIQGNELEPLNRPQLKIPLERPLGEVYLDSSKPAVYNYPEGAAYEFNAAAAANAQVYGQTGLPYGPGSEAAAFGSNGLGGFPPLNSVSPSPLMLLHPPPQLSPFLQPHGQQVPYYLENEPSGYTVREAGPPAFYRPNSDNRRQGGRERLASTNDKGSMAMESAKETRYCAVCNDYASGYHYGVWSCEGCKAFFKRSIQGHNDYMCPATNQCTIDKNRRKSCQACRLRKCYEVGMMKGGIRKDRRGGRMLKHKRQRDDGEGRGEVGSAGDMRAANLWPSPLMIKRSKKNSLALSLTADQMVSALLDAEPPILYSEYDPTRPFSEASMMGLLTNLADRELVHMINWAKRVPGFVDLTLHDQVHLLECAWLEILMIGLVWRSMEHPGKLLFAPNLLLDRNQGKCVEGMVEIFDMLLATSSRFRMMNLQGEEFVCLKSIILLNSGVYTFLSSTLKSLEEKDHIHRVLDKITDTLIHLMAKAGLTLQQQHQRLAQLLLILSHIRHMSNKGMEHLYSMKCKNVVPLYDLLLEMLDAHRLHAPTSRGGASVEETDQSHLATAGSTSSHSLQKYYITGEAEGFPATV
# Experiment: ER degradation activity, in-cell western blot analysis in T47D cells
# Assay type: cell-based
# Conditions: 16 hours, Table A does not say which cell line (T47D or MCF7), read-out: Potency (DC50)
# Summary of the method: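 ER protein remaining after 16 h compound exposure is quantified in T47D cells by in-cell western, with a no-primary-antibody background control. Values are percentages of DMSO-treated signal.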
row,Structure (SMILES),DC50
1,"C[C@@H]1Cc2c([nH]c3ccccc23)[C@@H](c2c(F)cc(N3CC(C(=O)N4CCC(CN5Cc6cc7c(cc6C5)C(=O)N(C5CCC(=O)NC5=O)C7=O)CC4)C3)cc2F)N1CC(F)F (stereo partly drawn) [E 216, 6-((1-(1-(4-((1R,3R)-2-(2,2-difluoroethyl)-3-methyl-2,3,4,9-tetrahydro-1H-pyrido[3,4-b]indol-1-yl)-3,5-difluorophenyl)azetidine-3-carbonyl)piperidin-4-yl)methyl)-2-(2,6-dioxopiperidin-3-yl)-6,7-dihydropyrrolo[3,4-f]isoindole-1,3(2H,5H)-dione]",< 0.01 µM
2,"C[C@@H]1Cc2c([nH]c3ccccc23)[C@@H](c2c(F)cc(N3CCC(N4CC(CN5Cc6cc7c(cc6C5)C(=O)N(C5CCC(=O)NC5=O)C7=O)C4)CC3)cc2F)N1CC(F)F (stereo partly drawn) [E 117, 6-((1-(1-(4-((1R,3R)-2-(2,2-difluoroethyl)-3-methyl-2,3,4,9-tetrahydro-1H-pyrido[3,4-b]indol-1-yl)-3,5-difluorophenyl)piperidin-4-yl)azetidin-3-yl)methyl)-2-(2,6-dioxopiperidin-3-yl)-6,7-dihydropyrrolo[3,4-f]isoindole-1,3(2H,5H)-dione]",0.01 to 0.1 µM
3,"O=C1CCC(N2Cc3cc4c(cc3C2=O)CN(C2CCN(CC3CCN(c5ccc([C@@H]6c7ccc(O)cc7CC[C@@H]6c6ccc(F)cc6)cc5)CC3)CC2)C4)C(=O)N1 (stereo partly drawn) [E 275, 3-(6-(1-((1-(4-((1R,2S)-2-(4-fluorophenyl)-6-hydroxy-1,2,3,4-tetrahydronaphthalen-1-yl)phenyl)piperidin-4-yl)methyl)piperidin-4-yl)-1-oxo-3,5,6,7-tetrahydropyrrolo[3,4-f]isoindol-2(1H)-yl)piperidine-2,6-dione]",< 0.01 µM
4,"O=C1CCC(N2C(=O)c3cc4c(cc3C2=O)CCN(CC(=O)N2CC3(CCN(c5ccc([C@@H]6c7ccc(O)cc7CC[C@@H]6c6ccccc6)cc5)CC3)C2)CC4)C(=O)N1 (stereo partly drawn) [E 169, 2-(2,6-dioxopiperidin-3-yl)-7-(2-(7-(4-((1R,2S)-6-hydroxy-2-phenyl-1,2,3,4-tetrahydronaphthalen-1-yl)phenyl)-2,7-diazaspiro[3.5]nonan-2-yl)-2-oxoethyl)-6,7,8,9-tetrahydroazepino[4,5-f]isoindole-1,3(2H,5H)-dione]",> 0.1 µM
5,"C[C@@H]1Cc2c([nH]c3ccccc23)[C@@H](c2c(F)cc(N3CCC4(CCN(CC(=O)N5Cc6cc7c(cc6C5)C(=O)N(C5CCC(=O)NC5=O)C7=O)C4)C3)cc2F)N1CC(F)F (stereo partly drawn) [E 76, 6-(2-(7-(4-((1R,3R)-2-(2,2-difluoroethyl)-3-methyl-2,3,4,9-tetrahydro-1H-pyrido[3,4-b]indol-1-yl)-3,5-difluorophenyl)-2,7-diazaspiro[4.4]nonan-2-yl)acetyl)-2-(2,6-dioxopiperidin-3-yl)-6,7-dihydropyrrolo[3,4-f]isoindole-1,3(2H,5H)-dione]",> 0.1 µM
6,"C[C@@H]1Cc2cc(O)ccc2[C@@H](c2c(F)cc(N3CCC4(CCN(CC(=O)N5Cc6cc7c(cc6C5)C(=O)N(C5CCC(=O)NC5=O)C7=O)C4)CC3)cc2F)N1CC(C)(F)F (stereo partly drawn) [E 33, 6-(2-(8-(4-((1S,3R)-2-(2,2-difluoropropyl)-6-hydroxy-3-methyl-1,2,3,4-tetrahydroisoquinolin-1-yl)-3,5-difluorophenyl)-2,8-diazaspiro[4.5]decan-2-yl)acetyl)-2-(2,6-dioxopiperidin-3-yl)-6,7-dihydropyrrolo[3,4-f]isoindole-1,3(2H,5H)-dione]",> 0.1 µM
7,"O=C1CCC(N2C(=O)c3cc4c(cc3C2=O)CN(CC2CCN(C(=O)C3CCN(c5ccc([C@@H]6c7ccc(O)cc7CC[C@@H]6c6ccccc6)cc5)CC3)CC2)C4)C(=O)N1 (mixture of isomers) [E 14, Rac-2-(2,6-dioxopiperidin-3-yl)-6-((1-(1-(4-((1R,2S)-6-hydroxy-2-phenyl-1,2,3,4-tetrahydronaphthalen-1-yl)phenyl)piperidine-4-carbonyl)piperidin-4-yl)methyl)-6,7-dihydropyrrolo[3,4-f]isoindole-1,3(2H,5H)-dione]",0.01 to 0.1 µM
8,"O=C1CCC(N2C(=O)c3cc4c(cc3C2=O)CN(C(=O)CN2CCC3(CC2)CCN(c2ccc([C@@H]5c6ccc(O)cc6CC[C@@H]5c5ccccc5)c(F)c2)C3)C4)C(=O)N1 (mixture of isomers) [E 153, Rac-2-(2,6-dioxopiperidin-3-yl)-6-(2-(2-(3-fluoro-4-((1S,2S)-6-hydroxy-2-phenyl-1,2,3,4-tetrahydronaphthalen-1-yl)phenyl)-2,8-diazaspiro[4.5]decan-8-yl)acetyl)-6,7-dihydropyrrolo[3,4-f]isoindole-1,3(2H,5H)-dione]",> 0.1 µM
9,"C[C@@H]1Cc2c([nH]c3ccccc23)[C@@H](c2c(F)cc(N3CCCC(CN4CCC(C(=O)N5Cc6cc7c(cc6C5)C(=O)N(C5CCC(=O)NC5=O)C7)CC4)C3)cc2F)N1CC(F)F (stereo partly drawn) [E 92, 3-(6-(1-((1-(4-((1R,3R)-2-(2,2-difluoroethyl)-3-methyl-2,3,4,9-tetrahydro-1H-pyrido[3,4-b]indol-1-yl)-3,5-difluorophenyl)piperidin-3-yl)methyl)piperidine-4-carbonyl)-1-oxo-3,5,6,7-tetrahydropyrrolo[3,4-f]isoindol-2(1H)-yl)piperidine-2,6-dione]",< 0.01 µM
10,"C[C@H]1CC2(CCN(C(=O)CN3Cc4cc5c(cc4C3)C(=O)N(C3CCC(=O)NC3=O)C5=O)CC2)CN1c1ccc([C@@H]2c3ccc(O)cc3CC[C@@H]2c2ccccc2)cc1 (mixture of isomers) [E 143, Rac-2-(2,6-dioxopiperidin-3-yl)-6-(2-((S)-2-(4-((1R,2S)-6-hydroxy-2-phenyl-1,2,3,4-tetrahydronaphthalen-1-yl)phenyl)-3-methyl-2,8-diazaspiro[4.5]decan-8-yl)-2-oxoethyl)-6,7-dihydropyrrolo[3,4-f]isoindole-1,3(2H,5H)-dione]",0.01 to 0.1 µM
11,"C[C@@H]1Cc2c([nH]c3ccccc23)[C@@H](c2c(F)cc(N3CCCC4(CN(C(=O)CN5Cc6cc7c(cc6C5)C(=O)N(C5CCC(=O)NC5=O)C7=O)C4)C3)cc2F)N1CC(F)F (stereo partly drawn) [E 81, 6-(2-(6-(4-((1R,3R)-2-(2,2-difluoroethyl)-3-methyl-2,3,4,9-tetrahydro-1H-pyrido[3,4-b]indol-1-yl)-3,5-difluorophenyl)-2,6-diazaspiro[3.5]nonan-2-yl)-2-oxoethyl)-2-(2,6-dioxopiperidin-3-yl)-6,7-dihydropyrrolo[3,4-f]isoindole-1,3(2H,5H)-dione]",0.01 to 0.1 µM

# Continued, values first:
row,DC50,Structure (SMILES)
1,< 0.01 µM,"O=C1CCC(N2Cc3cc4c(cc3C2=O)CN(C(=O)CN2CCC3(CC2)CCN(c2ccc([C@@H]5c6ccc(O)cc6CC[C@@H]5c5ccccc5)cc2)CC3)C4)C(=O)N1 (stereo partly drawn) [E 354, 3-(6-(2-(9-(4-((1R,2S)-6-hydroxy-2-phenyl-1,2,3,4-tetrahydronaphthalen-1-yl)phenyl)-3,9-diazaspiro[5.5]undecan-3-yl)acetyl)-1-oxo-3,5,6,7-tetrahydropyrrolo[3,4-f]isoindol-2(1H)-yl)piperidine-2,6-dione]"
2,> 0.1 µM,"O=C1CCC(N2C(=O)c3cc4c(cc3C2=O)CN(C[C@H]2CC[C@@H](N3CC(Nc5ccc([C@@H]6c7ccc(O)cc7CC[C@@H]6c6ccccc6)cc5)C3)CC2)C4)C(=O)N1 (stereo partly drawn) [E 375, 2-(2,6-dioxopiperidin-3-yl)-6-(((1S,4s)-4-(3-((4-((1R,2S)-6-hydroxy-2-phenyl-1,2,3,4-tetrahydronaphthalen-1-yl)phenyl)amino)azetidin-1-yl)cyclohexyl)methyl)-6,7-dihydropyrrolo[3,4-f]isoindole-1,3(2H,5H)-dione]"
3,> 0.1 µM,"C[C@@H]1Cc2c([nH]c3ccccc23)[C@@H](c2c(F)cc(C3CCN(C[C@H]4CC[C@@H](N5Cc6cc7c(cc6C5)C(=O)N(C5CCC(=O)NC5=O)C7=O)CC4)CC3)cc2F)N1CC(F)F (stereo partly drawn) [E 367, 6-((1S,4s)-4-((4-(4-((1R,3R)-2-(2,2-difluoroethyl)-3-methyl-2,3,4,9-tetrahydro-1H-pyrido[3,4-b]indol-1-yl)-3,5-difluorophenyl)piperidin-1-yl)methyl)cyclohexyl)-2-(2,6-dioxopiperidin-3-yl)-6,7-dihydropyrrolo[3,4-f]isoindole-1,3(2H,5H)-dione]"
4,> 0.1 µM,"O=C1CCC(N2C(=O)c3cc4c(cc3C2=O)CN([C@H]2CC[C@H](NC3CN(c5ccc([C@@H]6c7ccc(O)cc7CC[C@@H]6c6ccccc6)cc5)C3)CC2)C4)C(=O)N1 (stereo partly drawn) [E 341, 2-(2,6-dioxopiperidin-3-yl)-6-((1R,4r)-4-((1-(4-((1R,2S)-6-hydroxy-2-phenyl-1,2,3,4-tetrahydronaphthalen-1-yl)phenyl)azetidin-3-yl)amino)cyclohexyl)-6,7-dihydropyrrolo[3,4-f]isoindole-1,3(2H,5H)-dione]"

# Same assay, conditions: compounds 16 hours, Table A does not say whether T47D or MCF7, read-out: Potency (DC50)
row,DC50,Structure (SMILES)
1,> 0.1 µM,"C[C@@H]1Cc2cc(O)ccc2[C@H](c2c(F)cc(C(=O)N3CC4(CCN(C(=O)CN5Cc6cc7c(cc6C5)C(=O)N(C5CCC(=O)NC5=O)C7=O)CC4)C3)cc2F)N1CC(F)F (stereo partly drawn) [E 458, 6-(2-(2-(4-((1R,3R)-2-(2,2-difluoroethyl)-6-hydroxy-3-methyl-1,2,3,4-tetrahydroisoquinolin-1-yl)-3,5-difluorobenzoyl)-2,7-diazaspiro[3.5]nonan-7-yl)-2-oxoethyl)-2-(2,6-dioxopiperidin-3-yl)-6,7-dihydropyrrolo[3,4-f]isoindole-1,3(2H,5H)-dione]"

# From US20240190880A1 (THE REGENTS OF THE UNIVERSITY OF MICHIGAN, priority 2021, published 2024)
